# Biological target: T1, BRD4 (Homo sapiens, UniProt O60885)
# T1 construct: HEK293 containing a HiBit insertion for BRD4; endogenous in cells; host or cells: HEK293 with a HiBiT insertion for BRD4
# Test: Assay 1 - Degradation of HiBit-BRD4 in HEK293
# Type: cell-based
# Conditions: HiBit-BRD4 in HEK293, 6 h treatment
# Protocol: 1.1 Assay 1-Degradation of HiBit-BRD4 in HEK293
# HEK293 containing a HiBit insertion for BRD4 were plated in 384-well tissue culture plates at a density of 8×10^4 per well in a volume of 36 μL and incubated overnight at 37° C. and 5% CO2. Wells were treated with test compounds for 6 h prior to addition of the NanoLuc substrate and reading on a […]. Degradation data was plotted and analysed using […] (Graphpad).
Structure (SMILES),DC50 [nM],Dmax [%]
CC(=O)N1c2ccc(-c3ccc(C(=O)NCCOCCOCCOCCOCCOCCNC(=O)C4CCCN(C(=O)/C(C#N)=C/c5ccc(F)cc5)C4)cc3)cc2[C@H](Nc2ccc(Cl)cc2)C[C@@H]1C (some centres unmarked) [Example 13d],> 200,30 to 50
CC(=O)N1c2ccc(-c3ccc(C(=O)NCCOCCOCCOCCOCCOCCNC(=O)C4CC(C5CCCCC5)CN(C(=O)/C(C#N)=C/c5nccs5)C4)cc3)cc2[C@H](Nc2ccc(Cl)cc2)C[C@@H]1C (some centres unmarked) [Example 13p],< 25,≥ 70
CC(=O)N1c2ccc(-c3ccc(C(=O)NCCOCCOCCOCCOCCOCCNC(=O)C4CC(C5CC5)CN(C(=O)/C(C#N)=C/c5ccc(F)cc5)C4)cc3)cc2[C@H](Nc2ccc(Cl)cc2)C[C@@H]1C (some centres unmarked) [Example 13x],25 to 200,≥ 70
CC(=O)N1c2ccc(-c3ccc(C(=O)NCCOCCOCCOCCOCCOCCNC(=O)C4CC(C)CN(C(=O)/C(C#N)=C/C(C)(C)C)C4)cc3)cc2[C@H](Nc2ccc(Cl)cc2)C[C@@H]1C (some centres unmarked) [Example 13g],> 200,50 to 70
CC(=O)N1c2ccc(-c3ccc(C(=O)NCCOCCOCCOCCOCCOCCNC(=O)C4CC(c5ccccc5)CN(C(=O)/C(C#N)=C/c5ccn(C)n5)C4)cc3)cc2[C@H](Nc2ccc(Cl)cc2)C[C@@H]1C (some centres unmarked) [Example 13ab],> 200,50 to 70
CC(=O)N1c2ccc(-c3ccc(C(=O)NCCOCCOCCOCCOCCOCCNC(=O)C4CC(C5CC5)CN(C(=O)/C(C#N)=C/c5nccs5)C4)cc3)cc2[C@H](Nc2ccc(Cl)cc2)C[C@@H]1C (some centres unmarked) [Example 13u],< 25,≥ 70
CC(=O)N1c2ccc(-c3ccc(C(=O)NCCOCCOCCOCCOCCOCCNC(=O)C4CC(c5ccccc5)CN(C(=O)/C(C#N)=C/c5ccc(F)cc5)C4)cc3)cc2[C@H](Nc2ccc(Cl)cc2)C[C@@H]1C (some centres unmarked) [Example 13ac],25 to 200,≥ 70
COc1ccc(C2CC(C(=O)NCCOCCOCCOCCOCCOCCNC(=O)c3ccc(-c4ccc5c(c4)[C@H](Nc4ccc(Cl)cc4)C[C@H](C)N5C(C)=O)cc3)CN(C(=O)/C(C#N)=C/C(C)(C)C)C2)cc1 (some centres unmarked) [Example 13af],25 to 200,50 to 70
CC(=O)N1c2ccc(-c3ccc(C(=O)NCCOCCOCCOCCOCCOCCNC(=O)C4CC(c5cccc(C)c5)CN(C(=O)/C(C#N)=C/C(C)(C)CN5CCOCC5)C4)cc3)cc2[C@H](Nc2ccc(Cl)cc2)C[C@@H]1C (some centres unmarked) [Example 13ax],< 25,≥ 70
CC(=O)N1c2ccc(-c3ccc(C(=O)NCCOCCOCCOCCOCCOCCNC(=O)C4CC(c5cccc(C)c5)CN(C(=O)/C(C#N)=C/c5nccs5)C4)cc3)cc2[C@H](Nc2ccc(Cl)cc2)C[C@@H]1C (some centres unmarked) [Example 13at],25 to 200,≥ 70
CC(=O)N1c2ccc(-c3ccc(C(=O)NCCOCCOCCOCCOCCOCCNC(=O)C4CC(C5CCCCC5)CN(C(=O)/C(C#N)=C/C(C)(C)CN5CCOCC5)C4)cc3)cc2[C@H](Nc2ccc(Cl)cc2)C[C@@H]1C (some centres unmarked) [Example 13t],25 to 200,≥ 70
COc1ccc(C2CC(C(=O)NCCOCCOCCOCCOCCOCCNC(=O)c3ccc(-c4ccc5c(c4)[C@H](Nc4ccc(Cl)cc4)C[C@H](C)N5C(C)=O)cc3)CN(C(=O)/C(C#N)=C/c3ccc(F)cc3)C2)cc1 (some centres unmarked) [Example 13ah],25 to 200,≥ 70
CC(=O)N1c2ccc(-c3ccc(C(=O)NCCOCCOCCOCCOCCOCCNC(=O)C4CC(C(C)C)CN(C(=O)/C(C#N)=C/C(C)(C)C)C4)cc3)cc2[C@H](Nc2ccc(Cl)cc2)C[C@@H]1C (some centres unmarked) [Example 13l],> 200,30 to 50
CC(=O)N1c2ccc(-c3ccc(C(=O)NCCOCCOCCOCCOCCOCCNC(=O)C4CCCN(C(=O)/C(C#N)=C/C(C)(C)CN5CCOCC5)C4)cc3)cc2[C@H](Nc2ccc(Cl)cc2)C[C@@H]1C (some centres unmarked) [Example 13e],> 200,30 to 50
COc1ccc(C2CC(C(=O)NCCOCCOCCOCCOCCOCCNC(=O)c3ccc(-c4ccc5c(c4)[C@H](Nc4ccc(Cl)cc4)C[C@H](C)N5C(C)=O)cc3)CN(C(=O)/C(C#N)=C/C(C)(C)CN3CCOCC3)C2)cc1 (some centres unmarked) [Example 13ai],> 200,30 to 50
CC(=O)N1c2ccc(-c3ccc(C(=O)NCCOCCOCCOCCOCCOCCNC(=O)C4CC(C5CCCCC5)CN(C(=O)/C(C#N)=C/c5ccn(C)n5)C4)cc3)cc2[C@H](Nc2ccc(Cl)cc2)C[C@@H]1C (some centres unmarked) [Example 13r],25 to 200,≥ 70
CC(=O)N1c2ccc(-c3ccc(C(=O)NCCOCCOCCOCCOCCOCCNC(=O)C4CCCN(C(=O)/C(C#N)=C/c5ccn(C)n5)C4)cc3)cc2[C@H](Nc2ccc(Cl)cc2)C[C@@H]1C (some centres unmarked) [Example 13c],25 to 200,< 50
COc1ccc(C2CC(C(=O)NCCOCCOCCOCCOCCOCCNC(=O)c3ccc(-c4ccc5c(c4)[C@H](Nc4ccc(Cl)cc4)C[C@H](C)N5C(C)=O)cc3)CN(C(=O)/C(C#N)=C/c3nccs3)C2)cc1 (some centres unmarked) [Example 13ae],25 to 200,≥ 70
CC(=O)N1c2ccc(-c3ccc(C(=O)NCCOCCOCCOCCOCCOCCNC(=O)C4CC(c5ccccc5)CN(C(=O)/C(C#N)=C/c5nccs5)C4)cc3)cc2[C@H](Nc2ccc(Cl)cc2)C[C@@H]1C (some centres unmarked) [Example 13z],< 25,≥ 70
COc1ccc(C2CC(C(=O)NCCOCCOCCOCCOCCOCCNC(=O)c3ccc(-c4ccc5c(c4)[C@H](Nc4ccc(Cl)cc4)C[C@H](C)N5C(C)=O)cc3)CN(C(=O)/C(C#N)=C/c3ccn(C)n3)C2)cc1 (some centres unmarked) [Example 13ag],25 to 200,50 to 70
CC(=O)N1c2ccc(-c3ccc(C(=O)NCCOCCOCCOCCOCCOCCNC(=O)C4CC(C5CC5)CN(C(=O)/C(C#N)=C/C(C)(C)C)C4)cc3)cc2[C@H](Nc2ccc(Cl)cc2)C[C@@H]1C (some centres unmarked) [Example 13v],25 to 200,≥ 70

# Further lines, results first:
DC50 [nM],Dmax [%],Structure (SMILES)
> 200,< 50,COc1ccc([C@@H]2CN(C(=O)/C(C#N)=C/c3ccc(F)cc3)C[C@H]2C(=O)NCCOCCOCCOCCOCCOCCNC(=O)c2ccc(-c3ccc4c(c3)[C@H](Nc3ccc(Cl)cc3)C[C@H](C)N4C(C)=O)cc2)cc1 [Example 15ac]
25 to 200,50 to 70,COc1ccc([C@@H]2CN(C(=O)/C(C#N)=C/c3ccn(C)n3)C[C@H]2C(=O)NCCOCCOCCOCCOCCOCCNC(=O)c2ccc(-c3ccc4c(c3)[C@H](Nc3ccc(Cl)cc3)C[C@H](C)N4C(C)=O)cc2)cc1 [Example 15ab]
25 to 200,≥ 70,CC(=O)N1c2ccc(-c3ccc(C(=O)NCCOCCOCCOCCOCCOCCNC(=O)[C@@H]4CN(C(=O)/C(C#N)=C/c5nccs5)C[C@H]4CC(C)C)cc3)cc2[C@H](Nc2ccc(Cl)cc2)C[C@@H]1C [Example 15k]
25 to 200,≥ 70,CC(=O)N1c2ccc(-c3ccc(C(=O)NCCOCCOCCOCCOCCOCCNC(=O)[C@@H]4CN(C(=O)/C(C#N)=C/c5nccs5)C[C@H]4c4ccc(F)cc4)cc3)cc2[C@H](Nc2ccc(Cl)cc2)C[C@@H]1C [Example 15ae]
> 200,30 to 50,CC(=O)N1c2ccc(-c3ccc(C(=O)NCCOCCOCCOCCOCCOCCNC(=O)[C@@H]4CN(C(=O)/C(C#N)=C/c5ccc(F)cc5)C[C@H]4c4ccccc4)cc3)cc2[C@H](Nc2ccc(Cl)cc2)C[C@@H]1C [Example 15x]
25 to 200,≥ 70,COc1ccc([C@@H]2CN(C(=O)/C(C#N)=C/C(C)(C)C)C[C@H]2C(=O)NCCOCCOCCOCCOCCOCCNC(=O)c2ccc(-c3ccc4c(c3)[C@H](Nc3ccc(Cl)cc3)C[C@H](C)N4C(C)=O)cc2)cc1 [Example 15aa]
25 to 200,≥ 70,CC(=O)N1c2ccc(-c3ccc(C(=O)NCCOCCOCCOCCOCCOCCNC(=O)[C@@H]4CN(C(=O)/C(C#N)=C/C(C)(C)C)C[C@H]4c4ccc(F)cc4)cc3)cc2[C@H](Nc2ccc(Cl)cc2)C[C@@H]1C [Example 15af]
25 to 200,50 to 70,CC(=O)N1c2ccc(-c3ccc(C(=O)NCCOCCOCCOCCOCCOCCNC(=O)[C@@H]4CN(C(=O)/C(C#N)=C/c5ccc(F)cc5)C[C@H]4C4CCCCC4)cc3)cc2[C@H](Nc2ccc(Cl)cc2)C[C@@H]1C [Example 15s]
> 200,50 to 70,CC(=O)N1c2ccc(-c3ccc(C(=O)NCCOCCOCCOCCOCCOCCNC(=O)[C@@H]4CN(C(=O)/C(C#N)=C/c5ccc(F)cc5)C[C@H]4C(C)C)cc3)cc2[C@H](Nc2ccc(Cl)cc2)C[C@@H]1C [Example 15i]
25 to 200,30 to 50,CC(=O)N1c2ccc(-c3ccc(C(=O)NCCOCCOCCOCCOCCOCCNC(=O)[C@@H]4CN(C(=O)/C(C#N)=C/C(C)(C)CN5CCOCC5)C[C@H]4c4cccc(C)c4)cc3)cc2[C@H](Nc2ccc(Cl)cc2)C[C@@H]1C [Example 15an]
25 to 200,≥ 70,CC(=O)N1c2ccc(-c3ccc(C(=O)NCCOCCOCCOCCOCCOCCNC(=O)[C@@H]4CN(C(=O)/C(C#N)=C/C(C)(C)C)C[C@H]4C(C)C)cc3)cc2[C@H](Nc2ccc(Cl)cc2)C[C@@H]1C [Example 15g]
25 to 200,≥ 70,CC(=O)N1c2ccc(-c3ccc(C(=O)NCCOCCOCCOCCOCCOCCNC(=O)[C@@H]4CN(C(=O)/C(C#N)=C/C(C)(C)C)C[C@H]4C4CCCCC4)cc3)cc2[C@H](Nc2ccc(Cl)cc2)C[C@@H]1C [Example 15q]
25 to 200,≥ 70,"CC(=O)N1c2ccc(-c3ccc(C(=O)NCCOCCOCCOCCOCCOCCNC(=O)[C@@H]4CN(C(=O)/C(C#N)=C/C(C)(C)C)C[C@H]4c4cccc(C)c4)cc3)cc2[C@H](Nc2ccc(Cl)cc2)C[C@@H]1C [Example 15ak, N-(1-(4-((2S,4R)-1-acetyl-4-((4-chlorophenyl)amino)-2-methyl-1,2,3,4-tetrahydroquinolin-6-yl)phenyl)-1-oxo-5,8,11,14,17-pentaoxa-2-azanonadecan-19-yl)-1-((E)-2-cyano-4,4-dimethylpent-2-enoyl)-4-(m-tolyl)pyrrolidine-3-carboxamide]"
